Measurements from US10233161B2, “Pharmaceutical compositions and salts of a 1,2,4-oxadiazole benzoic acid” (PTC Therapeutics, Inc., priority 2014, dated 2019).

Columns and labels:
Format in all cases: physicochemical
[1] = Aqueous solubility determination of salts; conditions: for pH (aqueous solubility): pH at aqueous solubility; for pH / Solubility: Table 10; for pH: pH of the filtrate; for Solubility: 500 rpm, free acid by HPLC
Experimental: Each salt was suspended in water and shaken for 24 h at 25° C. and 500 rpm. The resulting suspensions were filtered (0.1 μm filter). The obtained solid residues were analyzed by FT-Raman. The pH of the filtrate was measured, and the concentration of the free acid was determined by HPLC.

[2] = Dynamic Vapor Sorption (DVS) / hygroscopicity; conditions: for DVS behaviour (figure legend): FIG. 17-21; for DVS result: Table 4; for Hygroscopicity (class): classified according to the European Pharmacopoeia; for DVS water uptake: from 80% to 95% r.h. (equilibrium reached); for Hygroscopicity (mass change): mass change in the range 0→85% r.h.; for DVS mass remaining higher than the original mass: upon lowering the relative humidity again (to 50% r.h.)
Experimental: DVS measurements (50%→0%→95%→50% r.h.) were performed on the samples of potassium salt 1, sodium salt 1, tromethamine salt 1, L-lysine salt and magnesium salt 2.

[3] = Crystallinity estimated from PXRD; parameters: key: +++ = high; ++ = good; + low

Structure (SMILES)	Aqueous solubility ([1]; Table 2, water, 24 h, 25° C.) [mg/mL]	Aqueous solubility ([1]; Table 4) [mg/mL]	pH (aqueous solubility) ([1]; Table 4)	pH [1]	Solubility ([1]; water, 24 h, 25° C.) [mg/mL]	DVS behaviour (figure legend) [2]	DVS result [2]	Hygroscopicity (class) [2]	DVS water uptake [2]	Hygroscopicity (mass change) [2]	DVS mass remaining higher than the original mass [2] [wt. %]	Crystallinity [3]	other results
O=C([O-])c1cccc(-c2noc(-c3ccccc3F)n2)c1.[K+] [Potassium salt 1]	57	57.00	9.2	9.2	57	small irreversible water uptake	H not detected; DVS: hygroscopic sample, hydrate formation; (increase of the mass is less than 15% and equal or greater than 2%)	(hygroscopic) (increase of the mass is less than 15% and equal or greater than 2%)	roughly 3 wt. %	+7.81 wt %	~1	+	DVS mass loss ([2]; humidity decreased to 0% r.h. (equilibrium not reached)): ~6 wt. %; DVS water uptake (mass change) ([2]; humidity further increased to 80% r.h.): ~1.5 wt. %
O=C([O-])c1cccc(-c2noc(-c3ccccc3F)n2)c1.[Na+] [Sodium salt 1]	22	22.22	8.3	8.3	22	stepwise irreversible water uptake	acidic H not detected; DVS: hygroscopic sample, hydrate (increase of the mass is less than 15% and equal or greater than 2%)	(very hygroscopic) (increase of the mass ≥15%)		+19.52 wt %	~16	++	DVS reversible mass change ([2]; 50% to 0% r.h. and again to 50% r.h.): 2 wt. %; DVS water uptake in one step ([2]; from 50% to 62% r.h.): Approximately 10 wt. %; DVS further water uptake, second step ([2]; humidity increased to 80% r.h. (equilibrium not reached)): ~6 wt. %; DVS water uptake up to 95% r.h. ([2]; humidity increased to 95% r.h.): 20 wt. %
NC(CO)(CO)CO.O=C(O)c1cccc(-c2noc(-c3ccccc3F)n2)c1 [Tromethamine salt 1]	18			8.1	18	large reversible water uptake with hysteresis	hygroscopic sample; Aqueous solubility (increase of the mass is less than 15% and equal or greater than 2%)	(hygroscopic) (increase of the mass is less than 15% and equal or greater than 2%)	~25 wt. %	+3.59 wt %		+++	DVS weight loss to a value lower than the original mass ([2]; below 70% r.h. on the way down): 3 wt. %; DVS mass change ([2]; humidity decreased to 0% r.h. and then raised to 80% r.h.): no significant mass change; DVS overall weight loss ([2]; whole DVS cycle): 3%
